Structures are written as SMILES.

We go through 2 compounds from patent US6787149B1 (El Khoury and Stein Ltd., priority 2000, dated 2004).

The test system of assay [1] is intraarticular opioid receptors. Kind of assay: Intraarticular injection after arthroscopic surgery of the knee. It is filed as in vivo, human. To be noted: injected in the knee after arthroscopic surgery.
Assay [2] deals with patients who had undergone failed back operations. To be noted: 1-3 mg on the back, ultrasound, massage, heat, Aquaphor vehicle; cited from earlier work.
Assay [3] has as its system patients who had burns from radiation therapy.
The test system of assay [4] is patients who had acute shingles. Kind of assay: Analgesia for shingles, morphine spray. It is filed as in vivo, human. An excerpt:
Other patients who were helped were those who had acute shingles which would produce excruciating pain on the chest.

In assay [5] the test system is children undergoing tonsillectomy. Kind of assay: Analgesia for postsurgical pain after tonsillectomy, morphine spray on tonsil beds. It is filed as in vivo, human. To be noted: spray in saline on the tonsil beds after surgery; able to swallow and eat ice cream same day. An excerpt:
The morphine spray in saline was used on the tonsil beds after surgery in children undergoing tonsillectomy.

Setting [6] is: after two or three days of using the spray.

Take `CCCCN1CCCCC1C(=O)Nc1c(C)cccc1C` (centres unmarked) [Marcaine]: in assay [1], the “Duration of relief after surgery” value is at most 12 h.

Regarding `CN1CC[C@]23c4c5ccc(O)c4O[C@H]2[C@@H](O)C=C[C@H]3[C@H]1C5.O=S(=O)(O)O` [Morphine, morphine sulfate], the Pain relief result in assay [2] is recorded as “Some improvement in pain relief”. Also, in assay [3] (compared with skin radiation burn patients), the “Relief of pain, patients with pain on the tongue or in the mouth due to radiation burns” value was “same experience”. The “Time able to sit to do exercises after topical application” value in assay [3] (one patient with severe burns on the buttocks, could not sit before) was “an hour and a half”. Moreover, the “Relief of pain, one patient with severe burns on the buttocks (prostate cancer)” value in assay [3] (spray) is “excellent relief of the pain”. The “Start of relief after topical application” value in assay [3] (two or three mg diluted with saline, sprayed) lay in the range of 10 to 15 min. The Relief of pain entry in assay [3] (two or three mg diluted with saline, sprayed over inflamed area, all patients treated) was “excellent relief of pain”. Also, in assay [4] (setting [6]), the Healing result is “healed faster” and the Post-herpetic neuralgia result is reported as “without any post-herpetic neuralgia”. In addition, in assay [4] (spray, typically three times a day), the “Pain of acute shingles” value is “significantly reduced”. Moreover, the Pain after surgery result in assay [5] is given as “no pain after surgery”.
